Test results reported in publication PMC7602804 (Nutrients, 2020).

Tests used:
[1] = test system: porcine brain endothelial cell (PBEC) monolayers; test: Apical to basolateral transport of milk peptides across porcine brain endothelial cell (PBEC) monolayers, blood-brain barrier model; format: in vitro ADME; conditions: A-B, HBSS + 10 mM HEPES, 2.5 h, LC-MS/MS; for Peptide identified in the basal compartment (brain side) of the PBEC BBB model (transported): primary PBEC on polyester inserts 0.4 μm, astrocyte conditioned medium, TEER higher than 800 Ω cm^2, mix of 192 milk peptides 0.1 mg/mL apical, five independent studies, αS1 peptide 'or' its truncated peptides stated collectively; for Peptides identified in the basolateral chamber of PBEC monolayers after synthetic PIGSENSEKTTMPLW was added apically: synthetic PIGSENSEKTTMPLW 2 µg/mL apical
Procedure: Capillaries were isolated from the brain cortices of domestic pigs 5–6 months old as previously described. PBECs were cultured by plating the capillaries in T75 flasks coated with collagen IV (500 µg/mL) and fibronectin (100 µg/mL) in DMEM-F12 medium, supplemented with 10% plasma-derived serum (First Link, Wolverhampton, UK), heparin (15 U), 100 units/mL of penicillin and 100 µg/mL of streptomycin (PBEC growth medium), and cultured in an incubator with humidified 5% CO2/95% air at 37 °C. Puromycin (4 µg/mL) was added to the growth medium for the first three days to obtain a pure culture of PBECs.
Astrocyte conditioned medium was collected every third day from primary rat astrocytes, sterile filtered and frozen until use. Isolation of primary rat astrocytes and preparation of astrocyte conditioned media were carried out as described in [20].
PBECs were grown until 70–80% confluency as described above and then passaged onto polyester culture inserts with a pore size of 0.4 μm and a growth area of 1.12 cm^2 (Costar, Corning, NY, USA) at a density of 1.1 × 10^5 cells/cm^2 in the PBEC growth medium. In the basolateral chamber, the medium consisted of 1 mL of PBEC growth medium and 0.5 mL of astrocyte conditioned medium. The medium was supplemented with differentiation factors: 550 nM of hydrocortisone, 250 μM of 8-(4-chlorophenylthio)adenosine-3′,5′-cyclic monophosphate (cAMP) and 17.5 μM of RO-201724 two days after seeding. The next day, the integrity of the PBEC monolayer was confirmed by measuring the TEER. Only PBEC monolayers with TEER values higher than 800 Ω cm^2 were used for the transport analysis.
(§1) Following the TEER value measurement, the Caco-2 and PBEC monolayers were gently washed twice with phosphate-buffered saline, and the transport medium (Hanks’ Balanced Salt solution supplemented with 10 mM of HEPES) was added to the apical and basolateral compartments. The inserts were incubated for 15 min or 2.5 h with the purified milk peptides (0.1 mg/mL) or the synthetic PIGSENSEKTTMPLW peptide (2 µg/mL), after which medium from the apical and basolateral compartments were collected for liquid chromatography tandem mass spectrometry (LC-MS/MS) analysis. Inserts incubated with a medium without peptides served as the control in the transport experiments. Membrane integrity was validated by addition of D-[1-^14C]-Mannitol (3.5 µM, 56.8 mCi/mmol) (Perkin Elmer, Waltham, MA, USA) to the upper chamber of the culture inserts with or without milk peptides for 2.5 h. The passive permeability experiments were performed on four or five individual culture inserts. Basolateral samples were mixed with Ultima Gold liquid scintillation fluid (Perkin Elmer) and counted in a Tri-Carb 2810 TR scintillation counter (Perkin Elmer). The apparent permeability coefficient (Papp, cm/s) was determined as Papp = (dQ/dt)/(AC0) where dQ/dt is the steady state flux (cpm/s), A is the surface area of the cell culture insert membrane and C0 is the initial concentration in the apical compartment (cpm/mL).
LC-MS/MS analysis was performed on a TripleTOF 6600 mass spectrometer equipped with an Exigent nanoLC 415 system (AB Sciex, Les Ulis, France). All samples were micro-purified using 3 M Empore C18 discs packed in pipette tips. The lyophilized samples were dissolved in 0.1% formic acid, injected on a trap column (2 cm × 100 µm inner diameter) and separated on an analytical column packed in-house in a pulled emitter (15 cm × 75 µm inner diameter). All columns were packed with ReproSil-Pur C18-AQ 3 µm resin (courtesy of Dr. Marisch, Ammerbuch-Entringen, Germany). […]

[2] = test system: Caco-2 monolayers; test: Apical to basolateral transport of milk peptides across Caco-2 monolayers (LC-MS/MS of basolateral medium); format: in vitro ADME, human; conditions: A-B, HBSS + 10 mM HEPES, 2.5 h; for Peptide identified in the basolateral chamber of Caco-2 monolayers (transported): Caco-2, 3 weeks on PET inserts 0.4 μm, TEER above 400 Ω cm^2, mix of 192 purified milk peptides 0.1 mg/mL apical, LC-MS/MS of basolateral medium, identified in two out of three experiments; for Peptides identified in the basolateral chamber of Caco-2 monolayers after synthetic PIGSENSEKTTMPLW was added apically: synthetic PIGSENSEKTTMPLW 2 µg/mL apical, LC-MS/MS
Procedure: The human colorectal adenocarcinoma cell line, Caco-2, was obtained from DSMZ (Braunschweig, Germany). The cells were grown to 50–60% confluence in Dulbecco’s Modified Eagle Medium (DMEM) Glutamax cell culture medium, supplemented with 10% heat-inactivated fetal bovine serum, 100 units/mL of penicillin and 100 μg/mL of streptomycin (all from Invitrogen, Carlsbad, CA, USA) in a humidified 5% CO2/95% air atmosphere at 37 °C. The cells used in the experiments were between passages 30 and 40.
The Caco-2 cells used for transport studies were seeded in polyethylene terephthalate culture inserts, with a pore size of 0.4 μm and a growth area of 0.33 cm^2 at a density of approximately 25,000 cells/insert. The Caco-2 cells were grown for three weeks on the porous membrane before they were used for transepithelial transport. The integrity of the monolayers was confirmed by measuring the TEER using a Millicell ERS-2 volt ohmmeter. Only Caco-2 monolayers with TEER values above 400 Ω cm^2 were used for the transport analysis.
as §1
LC-MS/MS analysis was performed on a TripleTOF 6600 mass spectrometer equipped with an Exigent nanoLC 415 system (AB Sciex, Les Ulis, France). All samples were micro-purified using 3 M Empore C18 discs packed in pipette tips. The lyophilized samples were dissolved in 0.1% formic acid, injected on a trap column (2 cm × 100 µm inner diameter) and separated on an analytical column packed in-house in a pulled emitter (15 cm × 75 µm inner diameter). All columns were packed with ReproSil-Pur C18-AQ 3 µm resin (courtesy of Dr. Marisch, Ammerbuch-Entringen, Germany). Peptides were eluted directly into the mass spectrometer with a linear gradient from 5 to 35% solvent B (0.1% formic acid in acetonitrile) for 20 min with a flowrate of 250 nL/min, followed after 10 min with 100% solvent B. Data files were converted to Mascot Generic Format using the Raw Converter (version 1.1.0.18) (http://fields.scripps.edu/rawconv/) or the AB Sciex MS Data Converter beta 1.1 (AB Sciex, Les Ulis, France). The generated peak lists were searched against the Bos taurus proteome (UniProt database, https://www.uniprot.org)) using an in-house Mascot search engine (Matrix Science, London, UK). The searches were made without specifying a protease and with oxidation (Met) and phosphorylation (ST) as variable modifications. Peptide tolerance was set to 10 ppm and MS/MS tolerance was set to 0.2 Da. […]

[3] = test system: pepsin, then trypsin, chymotrypsin and elastase; test: In vitro simulation of gastrointestinal digestion; format: in vitro ADME; conditions: 1 mg/mL, pepsin 1:100 w/w, 0.15 M NaCl pH 2.5, 60 min, 37 °C, chymotrypsin 1:100 and elastase 1:500 w/w, 50 mM ammonium bicarbonate pH 7.6, 37 °C, sampled 5, 30, 60 and 270 min, MALDI-MS (osteopontin: SDS-PAGE)
Procedure: The purified milk peptides and the synthesized PIGSENSEKTTMPLW and […] peptides were subjected to digestion, essentially as described in [5, 26] with few modifications. The peptides were dissolved in 0.15 M of NaCl with a pH of 2.5 at a concentration of 1 mg/mL and incubated with pepsin from porcine gastric mucosa in a 1:100 w/w enzyme to substrate ratio for 60 min at 37 °C. Before digestion with pancreatic proteases, the sample was lyophilized and washed twice in deionized water. Trypsin and chymotrypsin from a bovine pancreas (Worthington Biochemical Corporation, NJ, USA) (1:100 w/w) and elastase (Worthington) (1:500 w/w) were added in 50 mM of ammonium bicarbonate buffer (pH = 7.6) and the mixture was incubated for 60 min at 37 °C. In digests of the synthesized peptides, aliquots were sampled and analyzed after 5 min, 30 min, 60 min and 270 min incubation with the intestinal enzymes. Bovine milk osteopontin was purified as previously described and incubated with the digestive proteases to validate their activity. The digested milk peptides were separated by RP-HPLC on an Aeris C4 widepore column (Phenomenex, Værløse, Denmark) connected to a Shimadzu (Kyoto, Japan) HPLC system. The peptides were separated in 0.1% TFA (buffer A) and eluted with a gradient of 60% acetonitrile in 0.1% TFA (buffer B) at 40 °C. The gradient was developed over 59 min (0–5 min: 0% buffer B; 5–49 min: 0–98% buffer B; 49–59 min: 98% buffer B) at a flow rate of 0.85 mL/min. The peptides were detected by measuring the absorbance at 226 nm and analyzed by matrix-assisted laser desorption ionization time-of-flight mass spectrometry (MALDI-MS).
MALDI-MS was performed using a Bruker Autoflex III instrument (Bruker Daltonics, Bremen, Germany). The analysis was performed using a saturated solution of α-cyano-4-hydroxycinnamic acid. The instrument was operated in reflected positive ionization mode and calibrated in the mass range of 1000 to 3200 Da using a peptide calibration standard (Bruker Daltonics, Bremen, Germany). The theoretical peptide masses were calculated using the General Protein/Mass Analysis for Windows software (Lighthouse Data, Odense, Denmark).

[4] = test system: pepsin from porcine gastric mucosa, then trypsin and chymotrypsin from a bovine pancreas and elastase; test: synthetic peptide: pepsin in 0.15 M NaCl pH 2.5 (1:100 w/w, 60 min), then trypsin, chymotrypsin (1:100 w/w) and elastase (1:500 w/w) in 50 mM ammonium bicarbonate pH 7.6; conditions: 37 °C, up to 270 min

Substance | Peptide identified in the basal compartment (brain side) of the PBEC BBB model (transported) [1] | Peptide identified in the basolateral chamber of Caco-2 monolayers (transported) [2] | further results
AAPAGAAIQS [endogenous bovine milk peptide from the polymeric immunoglobulin receptor] | identified in the basal compartment of the BBB model | not transported across the Caco-2 monolayers | –
AAPAGAAIQSR [endogenous bovine milk peptide from the polymeric immunoglobulin receptor] | identified in the basal compartment of the BBB model | not transported across the Caco-2 monolayers | –
Ac-YDGRGDSVVYGLRSKSKKFRR-NH2 [reference compound] | – | – | Stability of the synthetic peptide / control in simulated gastrointestinal digestion [3]: cleaved after 5 min incubation with the proteases
EVIESPPEINTVQVTSTAV [endogenous bovine milk peptide from κ-casein] | – | identified in the basolateral chamber | –
KNTMEHVSSSEESIISQETY [endogenous bovine milk peptide from αS2-casein] | – | identified in the basolateral chamber | –
PIGSENSEKTT [truncated derivative of the αS1-casein peptide …] | identified in all experiments | – | Peptides identified in the basolateral chamber of PBEC monolayers after synthetic PIGSENSEKTTMPLW was added apically [1]: identified in the basolateral chamber of both monolayers; Peptides identified in the basolateral chamber of Caco-2 monolayers after synthetic PIGSENSEKTTMPLW was added apically [2]: identified in the basolateral chamber of both monolayers
PIGSENSEKTTMP [truncated derivative of the αS1-casein peptide …] | identified in all experiments | identified in the basolateral chamber | Peptides identified in the basolateral chamber of PBEC monolayers after synthetic PIGSENSEKTTMPLW was added apically [1]: identified in the basolateral chamber of both monolayers; Peptides identified in the basolateral chamber of Caco-2 monolayers after synthetic PIGSENSEKTTMPLW was added apically [2]: identified in the basolateral chamber of both monolayers
PVLGPVRGPFPIIV [endogenous bovine milk peptide from β-casein] | identified in the basal compartment of the BBB model | not transported across the Caco-2 monolayers | –
YDGRGDSVVYGLRSKSKKFRR (N-terminally acetylated and amidated at the C terminal) | – | – | fragment found [4]: YDGRGDSVVY, 5 min
osteopontin: bovine milk osteopontin, purified, incubated with the digestive proteases to validate their activity [reference compound] | – | – | Stability of the synthetic peptide / control in simulated gastrointestinal digestion [3]: cleaved by all the proteases
